Structures can show the parent of a compound that is named as a salt.
target: T1, PKCα (Homo sapiens, UniProt P17252); assay: In vitro radiometric PKC kinase assay; format: biochemical; settings: 0.1, 1 and 10 µM
T1 construct: purchased SignalChem (Richmond, BC, Canada)
Description: (§1) The PKC kinase assay was carried out by co-incubating 1 µCi [γ-^32P]ATP, 20 µM ATP, 50 ng of purified PKCα or PKCδ and 5 µg of myelin basic protein 4–14, 0.25 mg/mL bovine serum albumin, 0.1 mg/mL phosphatidylcholine/phosphatidylserine (80/20%) (1 µM), 1 µM phorbol dibutyrate in 50 µL of kinase buffer containing 50 mM Tris-HCl, pH 7.5, 4 mM MgCl2 and 10 mM β-mercaptoethanol. For the CAMK assay, 50 ng of CAMKIIα and 2 µg syntide-2 substrate in 50 µL kinase buffer were incubated with 0.1 mM MgCl2, 1 µCi of [γ-^32P] ATP, 70 µM ATP. 0.5 mM CaCl2 and 30 ng/µL calmodulin were preincubated for 15 min on ice and then added in the kinase reaction. The reactions were incubated at 30°C for 10 min and 25 µL of the reaction was spotted on Whatman P81 filter paper. The filter paper was washed 3 times in 0.5% phosphoric acid, air dried and counted using Beckman LS6500 multipurpose scintillation counter.

Row | SMILES | inhibition of PKCα, in words
1 | CN(C)CCCn1cc(C2=C(c3c[nH]c4ccccc34)C(=O)NC2=O)c2ccccc21 [GF109203X, reference compound] | potently and concentration-dependently inhibited

target: T2, PKCδ (Homo sapiens, UniProt Q05655); assay: In vitro radiometric PKC kinase assay; format: biochemical; settings: 0.1, 1 and 10 µM
T2 construct: purchased SignalChem (Richmond, BC, Canada)
T2 sequence (Q05655 whole entry): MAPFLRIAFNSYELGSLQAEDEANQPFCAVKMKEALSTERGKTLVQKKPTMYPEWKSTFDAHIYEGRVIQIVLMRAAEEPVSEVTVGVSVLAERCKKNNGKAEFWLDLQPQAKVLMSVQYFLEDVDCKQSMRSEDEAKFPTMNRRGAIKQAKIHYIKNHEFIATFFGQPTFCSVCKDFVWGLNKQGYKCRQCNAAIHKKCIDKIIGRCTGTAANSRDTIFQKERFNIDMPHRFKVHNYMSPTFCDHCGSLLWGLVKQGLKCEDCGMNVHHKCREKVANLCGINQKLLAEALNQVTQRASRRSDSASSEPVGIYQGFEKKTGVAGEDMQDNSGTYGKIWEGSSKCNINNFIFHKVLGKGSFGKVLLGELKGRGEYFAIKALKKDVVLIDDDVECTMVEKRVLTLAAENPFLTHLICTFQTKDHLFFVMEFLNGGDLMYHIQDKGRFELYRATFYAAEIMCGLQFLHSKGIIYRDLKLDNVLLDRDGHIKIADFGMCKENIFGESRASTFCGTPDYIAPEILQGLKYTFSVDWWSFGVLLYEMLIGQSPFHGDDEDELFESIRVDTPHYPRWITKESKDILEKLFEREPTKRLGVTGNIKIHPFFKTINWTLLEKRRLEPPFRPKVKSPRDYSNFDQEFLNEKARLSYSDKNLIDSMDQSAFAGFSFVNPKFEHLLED
Description: as §1

Row | SMILES | inhibition of PKCδ, in words
2 | CN(C)CCCn1cc(C2=C(c3c[nH]c4ccccc34)C(=O)NC2=O)c2ccccc21 [GF109203X, reference compound] | potently and concentration-dependently inhibited

target: T3, PKD1 (Homo sapiens, UniProt Q15139); assay: In vitro radiometric PKD1 screening assay at 1 µM; format: biochemical; settings: 1 µM; targeted kinase inhibitor library screen; relative to DMSO
T3 construct: GST; purchased Enzo Life sciences (Farmingdale, NY)
T3 sequence (Q15139 1-912): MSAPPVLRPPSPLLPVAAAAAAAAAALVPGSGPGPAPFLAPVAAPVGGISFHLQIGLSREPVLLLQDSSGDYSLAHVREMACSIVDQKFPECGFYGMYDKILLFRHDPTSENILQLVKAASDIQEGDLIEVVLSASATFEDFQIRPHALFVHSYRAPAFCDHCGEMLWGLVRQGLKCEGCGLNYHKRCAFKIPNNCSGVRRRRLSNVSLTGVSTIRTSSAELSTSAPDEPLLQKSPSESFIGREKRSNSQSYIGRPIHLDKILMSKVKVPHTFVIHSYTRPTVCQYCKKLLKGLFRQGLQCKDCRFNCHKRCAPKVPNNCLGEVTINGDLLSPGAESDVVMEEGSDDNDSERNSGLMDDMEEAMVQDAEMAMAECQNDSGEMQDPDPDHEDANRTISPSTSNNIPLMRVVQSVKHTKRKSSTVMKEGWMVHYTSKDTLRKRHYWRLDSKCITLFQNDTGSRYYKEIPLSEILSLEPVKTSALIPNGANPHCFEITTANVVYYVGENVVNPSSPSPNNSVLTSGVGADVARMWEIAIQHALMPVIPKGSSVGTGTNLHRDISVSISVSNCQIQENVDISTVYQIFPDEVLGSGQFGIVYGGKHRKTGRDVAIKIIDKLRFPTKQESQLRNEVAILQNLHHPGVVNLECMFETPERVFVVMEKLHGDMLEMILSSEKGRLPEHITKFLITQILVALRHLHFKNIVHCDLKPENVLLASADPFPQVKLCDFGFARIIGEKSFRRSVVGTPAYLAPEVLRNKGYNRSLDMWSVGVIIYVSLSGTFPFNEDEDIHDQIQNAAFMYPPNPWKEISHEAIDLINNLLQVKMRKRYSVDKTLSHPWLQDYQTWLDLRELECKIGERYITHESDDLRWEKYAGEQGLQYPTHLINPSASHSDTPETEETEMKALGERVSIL
Description: Phosphorylation of HDAC5 was detected in a kinase reaction having 1 µCi [γ-^32P] […] The reaction was incubated at 30°C for 10 minutes and 25 µL of the reaction was spotted on Whatman P81 filter paper. The filter paper was washed 3 times in 0.5% phosphoric acid, air dried and counted using Beckman LS6500 multipurpose scintillation counter. Percent PKD1 inhibition was graphed using GraphPad Prism software 5.0.

Row | SMILES | % PKD1 Inhibition
3 | O=C1NC(=O)c2c1c1c3ccccc3[nH]c1c1[nH]c3ccccc3c21 [Arcyriaflavin A] | 75%
4 | O=C1Nc2cc(Br)ccc2/C1=C1/Nc2ccccc2/C1=N\O [BIO] | 47%
5 | NC(=O)c1ccc(-c2nc(-c3ccc4c(c3)OCCO4)c(-c3ccccn3)[nH]2)cc1 [D 4476] | 45%
6 | Cc1ccccc1C(=O)c1ccc(Nc2ccc(Br)cc2N)cc1Cl [EO 1428] | 68%
7 | Cl.Cl.O=S(=O)(NCCNC/C=C/c1ccc(Br)cc1)c1cccc2cnccc12 [H 89 Dihydrochloride] | 66%
8 | CS(=O)(=O)O.Cn1cc(C2=C(c3cn(CCCSC(=N)N)c4ccccc34)C(=O)NC2=O)c2ccccc21 [Ro 31-8220 Mesylate] | 72%
9 | O=C1NC(=O)c2c1c1c3ccccc3n3c1c1c2c2ccccc2n1C1CCC3O1 [SB 218078] | 85%
10 | Fc1ccc(Cl)cc1-c1nc(Nc2ccncc2)c2nccnc2n1 [SD 208] | 74%

same assay, conditions: 1 µM; targeted kinase inhibitor library screen; relative to DMSO; read-out: % PKD1 Inhibition

Row | SMILES | inhibition at 1 µM
11 | O=S(=O)(c1cccc2cnccc12)N1CCCNCC1 [Fasudil hydrochloride] | 41%
12 | Oc1c2ccccc2c2c3c(cccc13)N=N2 [SP 600125] | 74%

same assay, conditions: SAR of synthesized 1-NA-PP1 analogs

Row | SMILES | PKD1 inhibitory activity, SAR result in words
13 | CNc1ncnc2c1c(-c1cccc3ccccc13)nn2C(C)(C)C [Compound 1a, 1-(t-Butyl)-N-methyl-3-(naphthalen-1-yl)-1H-pyrazolo[3,4-d]pyrimidin-4-amine] | ablated the PKD1 activity
14 | COc1ccc(-c2nn(C)c3nc(Cl)nc(N)c23)cc1 [Compound 1j, 6-Chloro-3-(4-methoxyphenyl)-1-methyl-1H-pyrazolo[3,4-d]pyrimidin-4-amine] | did not show an increase in potency
15 | CNc1nc(Cl)nc2c1c(-c1ccc(OC)cc1)nn2C [Compound 1k, 6-Chloro-3-(4-methoxyphenyl)-N,1-dimethyl-1H-pyrazolo[3,4-d]pyrimidin-4-amine] | did not show an increase in potency
16 | CNc1nc(Cl)nc2c1c(-c1ccc(OC(F)(F)F)cc1)nn2C [Compound 1m, 6-Chloro-N,1-dimethyl-3-(4-(trifluoromethoxy)phenyl)-1H-pyrazolo[3,4-d]pyrimidin-4-amine] | did not show an increase in potency
17 | CNc1ncnc2c1c(-c1ccc(-c3ccccc3)cc1)nn2C [Compound 1p, 3-([1,1'-Biphenyl]-4-yl)-N,1-dimethyl-1H-pyrazolo[3,4-d]pyrimidin-4-amine] | did not show an increase in potency

same assay, conditions: read-out: inhibition of PKD1 activity

Row | SMILES | inhibition at 1 µM
18 | Cn1nc(-c2cccc3ccccc23)c2c(N)ncnc21 [Compound 1f, 1-Methyl-3-(naphthalen-1-yl)-1H-pyrazolo[3,4-d]pyrimidin-4-amine] | 32%

tested on: not given; assay: not given; settings: not given

Row | SMILES | melting point
19 | CNc1ncnc2c1c(-c1cccc3ccccc13)nn2C(C)(C)C [Compound 1a, 1-(t-Butyl)-N-methyl-3-(naphthalen-1-yl)-1H-pyrazolo[3,4-d]pyrimidin-4-amine] | 152.4 to 156.3 °C
20 | CNc1ncnc2c1c(-c1ccc(OC)cc1)nn2C(C)(C)C [Compound 1c, 1-(t-Butyl)-3-(4-methoxyphenyl)-N-methyl-1H-pyrazolo[3,4-d]pyrimidin-4-amine] | 89.3 to 91.2 °C
21 | COc1ccc(-c2nn(C)c3ncnc(N)c23)cc1 [Compound 1h, 3-(4-Methoxyphenyl)-1-methyl-1H-pyrazolo[3,4-d]pyrimidin-4-amine] | 185 to 188 °C
22 | COc1ccc(-c2nn(C)c3nc(Cl)nc(N)c23)cc1 [Compound 1j, 6-Chloro-3-(4-methoxyphenyl)-1-methyl-1H-pyrazolo[3,4-d]pyrimidin-4-amine] | > 250 °C
23 | CNc1nc(Cl)nc2c1c(-c1ccc(OC)cc1)nn2C [Compound 1k, 6-Chloro-3-(4-methoxyphenyl)-N,1-dimethyl-1H-pyrazolo[3,4-d]pyrimidin-4-amine] | 159.3 to 160.9 °C
24 | CNc1nc(Cl)nc2c1c(-c1ccc(F)cc1)nn2C [Compound 1o, 6-Chloro-3-(4-fluorophenyl)-N,1-dimethyl-1H-pyrazolo[3,4-d]pyrimidin-4-amine] | 189.9 to 192.3 °C

Source: publication PMC3781056, “New Pyrazolopyrimidine Inhibitors of Protein Kinase D as Potent Anticancer Agents for Prostate Cancer Cells” (PLoS ONE, 2013)
